# Experimental data from patent US20230127944A1, “BROAD-SPECTRUM CARBAPENEMS” (priority 2019, published 2023).
# Key:
# [1] = system: Methicillin Resistant S. aureus (MRSA) clinical isolates; test: expanded MIC profiling, MRSA clinical isolates; format: cell-based; conditions: Staphylococcus aureus
# Description: (§1) To evaluate the activity of selected example compounds against clinical isolates of target species, standard cell-based broth microdilution MIC assays were employed. A panel of 20 clinical isolates of P. aeruginosa and 20 clinical isolates of Methicillin Resistant S. aureus (MRSA) from Lankenau Medical Center (Wynnewood, Pa.) were used. In the set of P. aeruginosa isolates, the compounds were also tested in combination with a β-lactamase inhibitor (taniborbactam), to evaluate the potential benefit of inhibiting β-lactamase enzymes. The assay was conducted in Cation Adjusted Mueller Hinton Broth (CAMHB, BD #212322, BD Diagnostic Systems, Sparks, Md.). Bacteria strains were grown for 3-5 hours in CAMHB. Compounds were added to a microtiter plate in 2-fold serial dilutions in CAMHB. For plates receiving β-lactamase inhibitor, taniborbactam was added to obtain a final fixed concentration of 4 μg/mL. Once the test articles were added, the plates were inoculated according to CLSI broth microdilution method. After inoculation, the plates were incubated for 16-20 hours at 37° C. then the Minimal Inhibitory Concentration (MIC) of the test compound is determined visually. Values for concentration required to inhibit growth of […] (MIC50) and 90% (MIC90) of isolates were determined.
# [2] = system: P. aeruginosa clinical isolates; test: expanded MIC profiling, P. aeruginosa clinical isolates; format: cell-based; conditions: Pseudomonas aeruginosa
# Description: as §1
# [3] = panel of S. aureus (MRSA) isolates of Table 5
# [4] = panel of 20 P. aeruginosa clinical isolates
structure (smiles),measurement,setting,value
"C[C@@H](O)[C@H]1C(=O)N2C(C(=O)O)=C(S[C@@H]3CN[C@H](C(=O)N(C)C)C3)[C@H](C)[C@H]12 [Meropenem, reference compound]",MIC,"[1]; ATCC 33591 / MRSA, S. aureus ATCC-33591",32 µg/mL
same,MIC,"[1]; MRSA, S. aureus clinical isolate LH-SA3",4 µg/mL
same,MIC,"[1]; MRSA, S. aureus clinical isolate LH-SA9",4 µg/mL
same,MIC,"[1]; MRSA, S. aureus clinical isolate LH-SA23",4 µg/mL
same,MIC,"[1]; MRSA, S. aureus clinical isolate LH-SA24",4 µg/mL
same,MIC,"[1]; MRSA, S. aureus clinical isolate LH-SA26",4 µg/mL
same,MIC,"[1]; MRSA, S. aureus clinical isolate LH-SA29",16 µg/mL
same,MIC,"[1]; MRSA, S. aureus clinical isolate LH-SA33",4 µg/mL
same,MIC,"[1]; MRSA, S. aureus clinical isolate LH-SA34",8 µg/mL
same,MIC,"[1]; MRSA, S. aureus clinical isolate LH-SA37",4 µg/mL
same,MIC,"[1]; MRSA, S. aureus clinical isolate LH-SA38",32 µg/mL
same,MIC,"[1]; MRSA, S. aureus clinical isolate LH-SA39",4 µg/mL
same,MIC,"[1]; MRSA, S. aureus clinical isolate LH-SA40",4 µg/mL
same,MIC,"[1]; MRSA, S. aureus clinical isolate LH-SA41",4 µg/mL
same,MIC,"[1]; MRSA, S. aureus clinical isolate LH-SA42",8 µg/mL
same,MIC,"[1]; MRSA, S. aureus clinical isolate LH-SA44",8 µg/mL
same,MIC,"[1]; MRSA, S. aureus clinical isolate LH-SA45",16 µg/mL
same,MIC,"[1]; MRSA, S. aureus clinical isolate LH-SA48",4 µg/mL
same,MIC,"[1]; MRSA, S. aureus clinical isolate LH-SA49",4 µg/mL
same,MIC,"[1]; MRSA, S. aureus clinical isolate LH-SA50",4 µg/mL
same,MIC50,[1]; [3],4 µg/mL
same,MIC90,[1]; [3],16 µg/mL
same,MIC,[2]; P. aeruginosa clinical isolate Lankenau 11,1 µg/mL
same,MIC,[2]; P. aeruginosa clinical isolate Lankenau 12,0.5 µg/mL
same,MIC,[2]; P. aeruginosa clinical isolate Lankenau 13,1 µg/mL
same,MIC,[2]; P. aeruginosa clinical isolate Lankenau 14,0.5 µg/mL
same,MIC,[2]; P. aeruginosa clinical isolate Lankenau 15,1 µg/mL
same,MIC,[2]; P. aeruginosa clinical isolate Lankenau 16,0.5 µg/mL
same,MIC,[2]; P. aeruginosa clinical isolate Lankenau 17,1 µg/mL
same,MIC,[2]; P. aeruginosa clinical isolate Lankenau 18,0.5 µg/mL
same,MIC,[2]; P. aeruginosa clinical isolate Lankenau 19,1 µg/mL
same,MIC,[2]; P. aeruginosa clinical isolate Lankenau 20,0.5 µg/mL
same,MIC,[2]; P. aeruginosa clinical isolate Lankenau 21,1 µg/mL
same,MIC,[2]; P. aeruginosa clinical isolate Lankenau 22,0.5 µg/mL
same,MIC,[2]; P. aeruginosa clinical isolate Lankenau 23,0.5 µg/mL
same,MIC,[2]; P. aeruginosa clinical isolate Lankenau 24,4 µg/mL
same,MIC,[2]; P. aeruginosa clinical isolate Lankenau 25,0.5 µg/mL
same,MIC,[2]; P. aeruginosa clinical isolate Lankenau 26,< 0.25 µg/mL
same,MIC,[2]; P. aeruginosa clinical isolate Lankenau 27,0.5 µg/mL
same,MIC,[2]; P. aeruginosa clinical isolate Lankenau 28,0.5 µg/mL
same,MIC,[2]; P. aeruginosa clinical isolate Lankenau 29,0.5 µg/mL
same,MIC,[2]; P. aeruginosa clinical isolate Lankenau 30,0.5 µg/mL
same,MIC50,[2]; [4],0.5 µg/mL
same,MIC90,[2]; [4],1 µg/mL
